Holding throughout (assay type): physicochemical
A short description of data set [1]: Stability of crystalline form A of mesaconine by XRPD comparison (storage for 4 weeks; heating to 180° C.). The protocol: After the samples of crystalline form A of mesaconine were placed at 25° C., 60% RH and 40° C., 75% RH for 4 weeks, it was performed XRPD test. The test result was compared with XRPD spectrum of comparative sample of crystalline form A of the mesaconine (XRPD spectrum of crystalline form A of mesaconine before stability test), and the results were shown in FIG. 4. Another sample of crystalline form A of mesaconine was heated to 180° C., and then was performed XRPD test. The test result was compared with XRPD spectrum of comparative sample of crystalline form A of the mesaconine (XRPD spectrum of crystalline form A of mesaconine before stability test), and the results were shown in FIG. 5.

A short description of data set [2]: Solubility test, Chinese pharmacopoeia 2015 edition, general notice. Particulars: solvent: water. The text has this:
The crystalline form A of mesaconine was sampled and tested according to the method of solubility test in the Chinese pharmacopoeia (2015 edition, general notice).

Data set [3] in a line: Drug hygroscopicity test, Chinese Pharmacopoeia general rule 9103. As to conditions: for Percentage of weight increment(%): single batch. How it is done: The test was performed according to guiding principles for drug hygroscopicity test in Chinese Pharmacopoeia (general rule 9103, volume 4, 2015 edition).
According to the definition of hygroscopicity in Chinese Pharmacopoeia (general rule 9103, volume 4, 2015 edition): when the weight increment by hygroscopicity is less than 2% but not less than 0.2%, it has slight hygroscopicity. The weight increment of crystalline form A of mesaconine was 0.85% under the test conditions, which has slight hygroscopicity and good deliquescence resistance.

A short description of data set [4]: Influencing factors test (high temperature, high humidity, hard light irradiation), Chinese pharmacopoeia general rule 9001, analyzed by XRPD. As to conditions: open flat weighing bottle, 10 days. How it is done: In addition, the crystalline form A of mesaconine was sampled and tested for influencing factors according to the Guiding principle for stability test of raw materials of drugs and preparations (general rule 9001, the Chinese pharmacopoeia, 2015 edition).
High temperature test: the sample was placed in an open flat weighing bottle at 60° C. for 10 days. Then the sample was tested according to the key inspection items of stability test, and analyzed by X-ray powder diffraction.
High humidity test: the sample was placed in an open flat weighing bottle at 25° C. and 90% relative humidity for 10 days. Then the sample was tested according to the key inspection items of stability test, and analyzed by X-ray powder diffraction.
Hard light irradiation test: the sample was placed in an open flat weighing bottle for 10 days under the illuminance of 4500 lx. Then the sample was tested according to the key inspection items of stability test, and analyzed by X-ray powder diffraction.

The nature of data set [5]: Stability of crystalline form B of mesaconine by XRPD comparison after heating to 115° C. Particulars: heated to 115° C. How it is done:
Appropriate amount of crystalline form B of mesaconine was sampled and heated to 115° C., and then was performed XRPD test. The test result was compared with XRPD spectrum of comparative sample of crystalline form B of mesaconine (XRPD spectrum of crystalline form B of mesaconine before stability test), and the results were shown in FIG. 9.

As for `COC[C@]12CN(C)[C@@H]3[C@@H]4[C@H](OC)[C@H]1[C@@]3([C@@H](OC)C[C@H]2O)[C@@H]1C[C@@]2(O)[C@H](O)[C@@H]1[C@]4(O)[C@@H](O)[C@@H]2OC` [crystalline form A of mesaconine, N-methyl-1α,6α,16β,18-tetramethoxyl-4-methyl-aconite-3α,8β,13β,14α,15α-pentol], the “Crystalline form stability (XRPD main diffraction peaks)” value in data set [1] (25° C., 60% RH for 4 weeks) was “crystalline form did not change”; in data set [1] (40° C., 75% RH for 4 weeks) it was “crystalline form did not change”; in data set [1] (heated to 180° C.) it was “crystalline form did not change”. Further, in data set [2], the Solubility result was “easily soluble (1 g of solute can be dissolved in 1~10 ml of solvent)”. Further, the Hygroscopicity class result in data set [3] (Chinese Pharmacopoeia definition) was “slight hygroscopicity (when the weight increment by hygroscopicity is less than 2% but not less than 0.2%, it has slight hygroscopicity)”. Besides, the “Percentage of average weight increment(%)” value in data set [3] (hygroscopicity test, average of two batches) came to 0.85%. For the same molecule, the “Percentage of weight increment(%)” value is 0.85% in data set [3] (hygroscopicity test, listed as Sample 1) and 0.84% in data set [3] (hygroscopicity test, listed as Sample 2). In addition, the “Position and relative intensity of main XRPD diffraction peaks after high humidity test” value in data set [4] (25° C., 90% relative humidity) is “had not changed significantly”. The “Position and relative intensity of main XRPD diffraction peaks after high temperature test” value in data set [4] (60° C.) was “had not changed significantly”. Moreover, the “Position and relative intensity of main XRPD diffraction peaks after hard light irradiation test” value in data set [4] (illuminance 4500 lx) was “had not changed significantly”.

Consider “N-methyl-1α,6α,16β,18-tetramethoxyl-4-methyl-aconite-3α,8β,13β,14α,15α-pentol [crystalline form B of mesaconine]”, for which, in data set [5], the “Crystalline form stability (XRPD main diffraction peaks)” value is recorded as “crystalline form did not change”.
